Measured values published in patent publication US20150030583A1, “Methods of Treating Serosal Cancer” (SLOAN KETTERING INSTITUTE FOR CANCER RESEARCH, priority 2011, published 2015).
Where two headings read alike, the source gives them in different places.

Legend:
catena cells [1] = test: In vitro clonogenicity assay of catena cells; assay type: cell-based; conditions: enzyme included in the clonogenic assay; attached cells
Text: Catena cells were dissociated with hyaluronidase, allowed to attach to tissue culture plates and grown in the presence hyaluronidase for 7 days. Under these conditions, cells remained attached to tissue culture plates. The cells were harvested and subjected to an in vitro clonogenicity assay in the presence and absence of hyaluronidase. In parallel, mechanically-dissociated catena were subjected to the in vitro clonogenicity assay in the presence and absence of hyaluronidase.

catena cells [2] = test: Growth of catena cells upon disruption of the glycocalyx; assay type: cell-based
Description: To investigate the how catena cells grow upon disruption of the glycocalyx, catenae were dissociated to single cells with hyaluronidase treatment and plated in tissue culture treated flasks with or without 10% hyaluronidase enzyme solution (10 mg/ml) to prevent the formation of glycocalyx. In parallel, catenae were dissociated mechanically and plated in the absence of hyaluronidase.

[3] = system: glycocalyx surrounding a catena; test: Particle exclusion experiment with red blood cells; assay type: cell-based; conditions: brief incubation with enzyme, RBCs overnight
Description: To visualize the glycocalyx surrounding a catena, a particle exclusion experiment was conducted using red blood cells (RBCs). Catenae were mechanically dissociated by pipetting or by brief incubation with hyaluronidase as before. RBCs from human peripheral blood were added and the mixture was incubated overnight in culture media. The cells were observed under the light microscope for the presence of a glycocalyx separating catena cells from the RBCs.

[4] = Viscosity of catena culture supernatant after enzyme treatment; conditions: a few drops 10 mg/mL enzyme
Description: In contrast, Ovcar3-GTL epithelial cells were 98% positive for CA125 by FACS and secreted 800 units/ml of CA125 into culture media. For the ELISA, cell supernatants were collected by spinning the cultures at 300×g for 5 min to remove cells and assayed by CA125 ELISA using an automated instrument, ADVIA Centaur XP Immunoassay System (Siemens Healthcare Diagnostics Inc.).
Hyaluronan is a glycosaminoglycan found in extracellular matrix and functions to provide microenvironmental cues in a number of biological processes, including tumor development [Toole, 2004]. Supernatants prepared as above were treated with a few drops 10 mg/mL hyaluronidase (Sigma) in deionized water.

catena cells [5] = test: Morphological observation of treated catenae under the microscope; assay type: cell-based; conditions: for morphological change of treated catenae: microscope observation; for cells seen in cultures treated with high concentrations of compounds: 100 μM (rapamycin 25 μM, lovastatin acid 50 μM), cells re-entered the cell cycle without drug
[6] = system: low molecular weight complex of collagen and hyaluronan; test: Western blot (anti-COL1A2) of catena culture supernatant; assay type: biochemical
Text: The glycocalyx of the catena has two major components, i.e., hyaluronan and collagen, which interact and form a stable complex. […] Briefly, the supernatant fraction of catena cell cultures was separated from the cells by centrifugation. The supernatant was run in an SDS-PAGE gel and blotted with the anti-COL1A2 antibody. This complex was sensitive to hyaluronidase treatment but was not affected by collagenase type 1, 2 or 4 treatment. This hyaluronan-collagen complex could be important for the formation of catena glycocalyx and drug resistance or metastatic potential conferred to catena cells by the glycocalyx.

[7] = system: Ovcar5 monolayer (mesenchymal) cells; test: Ovarian cancer monolayer drug sensitivity (alamarBlue), Ovcar5; assay type: cell-based
Description: (§1) The foregoing total of 29 compounds were tested in parallel on ovarian cancer monolayer cells by seeding 100 Ovcar3 monolayer (epithelial) or 25 Ovcar5 monolayer (mesenchymal) cells in 384-well plates. Drugs were added 4 days after cell seeding and cell viability was analyzed by alamarBlue staining. In general, catena cells with an established glycocalyx were on average 4-8 fold more resistant to these compounds when compared to monolayers. […]

[8] = system: Ovcar3 monolayer (epithelial) cells; test: Ovarian cancer monolayer drug sensitivity (alamarBlue), Ovcar3; assay type: cell-based
Description: as §1

Ovcar3-GTL catenae = test: Ovcar3-GTL catena drug sensitivity / proliferation screen (alamarBlue, 384-well); conditions: for Increased Resistance of catena: catena with established glycocalyx versus monolayers; for Increase in Resistance Day6/Day 1: ratio of IC50 day 6 to day 1, Ovcar3-GTL catenae
Description: Cells were resuspended in M5-FCS to produce homogenous cultures of single cells which were seeded in 50 μL aliquots per well at the indicated cell densities and grown for the indicated times before addition of test compounds or other reagents.
For these experiments, 25 Ovcar3-GTL catena or 250 Ovcar3-GTL catena cells were seeded per well as described above. […] Five days after adding the test compound, alamarBlue® was added to the cultures and culture absorbance was measured 48 hours later.
The assays were conducted on catena cells with or without a glycocalyx coat and the IC50 values were determined.
Each compound was tested against three cellular entities (catena cells with or without the coat and established tumor spheroids) at 5 μM, 0.2 μM and 0.008 μM of compounds (with replicates).

[9] = system: established tumor spheroids; test: Established tumor spheroid drug sensitivity (alamarBlue)
Description: The effect of these 29 compounds were also tested on established tumor spheroids. For these assays, 100 spheroid forming cells were seeded in 384-well plates and cultured for 11 days to allow the formation of tumor spheroids before adding drugs. Five days after adding the compound the cells were stained with alamarBlue and scored as above.

catena cells [10] = test: Combination drug screening: paclitaxel after PEGylated enzyme treatment; assay type: cell-based
Description: Twenty-five […] seeded into 384-well plates. After 5 days, cells were treated with either PEGylated hyaluronidase, PEGylated collagenase or both for 10 minutes at 37° C. Without removing the enzymes, paclitaxel was added over a series of dilutions, followed by alamarBlue addition on day 9 with absorbance measured two days later.

[11] = 25 cells seeded, drugs added 4 days after seeding, read-out: IC50 (μM) Ovcar5 monolayer
[12] = 100 cells seeded, drugs added 4 days after seeding, read-out: IC50 (μM) Ovcar3 monolayer
[13] = read-out: IC50 (μM) Addition on Day 1, Ovcar3-GTL catenae, compound added one day after seeding (cells predominantly lacking a glycocalyx)
[14] = read-out: IC50 (μM) Addition on Day 6, Ovcar3-GTL catenae, compound added six days after seeding (established or substantial glycocalyx)
[15] = 24 h, read-out: IC50 (μM) Addition on Day 1, Ovcar3-GTL catenae, compound added one day after seeding (cells predominantly lacking a glycocalyx)
[16] = 144 h, read-out: IC50 (μM) Addition on Day 6, Ovcar3-GTL catenae, compound added six days after seeding (established or substantial glycocalyx)

Which results are given for hyaluronidase?
colony size in clonogenic assay (catena cells [1]): further reduced; growth of catena cells, continuous enzyme treatment (catena cells [2]; 10% enzyme solution (10 mg/ml) in culture): attached to tissue culture plates and formed epithelial and mesenchymal monolayers; growth of catena cells, brief enzyme treatment, plated without enzyme (catena cells [2]; dissociated to single cells with enzyme): no longer formed free floating chains but rather proliferated as irregular aggregates in suspension; glycocalyx coat in RBC particle exclusion [3]: completely lacked a glycocalyx; viscosity of culture supernatant [4]: rapidly reduced the viscosity; morphological change of treated catenae (catena cells [5]; listed as non-PEGylated hyaluronidase): caused aggregation of catena cells; effect on hyaluronan-collagen complex (less than 20 kDa) [6]: sensitive

Which “morphological change of treated catenae” value (catena cells [5]) does the source give for O=C(CCCCCCC(=O)Nc1ccccc1)NO [SAHA, Vorinostat] here?
Its value is “formation of tight spheroids”.

What does the source list for iso-oxazole-fludelone?
IC50 [7, 11]: 0.012 µM; cells seen in cultures treated with high concentrations of compounds (catena cells [5]): live, large single cells, i.e., cells arrested at mitosis; IC50 [8, 12]: 0.05 µM; Increased Resistance of catena (Ovcar3-GTL catenae): 2,000 fold; Increase in Resistance Day6/Day 1 (Ovcar3-GTL catenae): 33,333 fold; IC50 (Ovcar3-GTL catenae; [13]): 3 nM; IC50 (Ovcar3-GTL catenae; [14]): > 100000 nM

With C/C(=C\c1csc(C)n1)[C@@H]1C/C=C(/C(F)(F)F)C/C=C/[C@H](C)[C@H](O)[C@@H](C)C(=O)C(C)(C)[C@@H](O)CC(=O)O1 [fludelone] as the compound, how does the IC50 [7, 11] read?
Its IC50 is 0.0004 µM.

What about the “cells seen in cultures treated with high concentrations of compounds” value (“cells seen in cultures treated” for short) (catena cells [5]) of the same compound?
Its value is “live, large single cells, i.e., cells arrested at mitosis”.

And the IC50 [8, 12]?
Its IC50 is 0.0008 µM.

What about the “Increased Resistance of catena” value (Ovcar3-GTL catenae) of the same compound?
Its value is 125,000 fold.

What about the IC50 (Ovcar3-GTL catenae; [13]) of the same compound?
The IC50 was ≤ 0.012 nM.

What about the IC50 (Ovcar3-GTL catenae; [14]) of the same compound?
The IC50 was > 100000 nM.

For CC[C@@]1(O)C(=O)OCc2c1cc1n(c2=O)Cc2cc3c(CN(C)C)c(O)ccc3nc2-1 [topotecan], which “cells seen in cultures treated” value (catena cells [5]) is on record?
Its value is “live, large single cells, i.e., cells arrested at mitosis”.

What about the IC50 (Ovcar3-GTL catenae; [15]) of the same compound?
Its IC50 is 20 nM.

What about the IC50 (Ovcar3-GTL catenae; [16]) of the same compound?
Its IC50 is > 100000 nM.

What about the “Increase in Resistance Day6/Day 1” value (Ovcar3-GTL catenae) of the same compound?
Its value is 5,000 fold.

Which results are given for COc1cc2c(cc1OC)[C@@H]1C(=O)c3ccc4c(c3O[C@@H]1CO2)C=CC(C)(C)O4 [deguelin]?
IC50 ([9]; read-out: spheroid IC50): 400 nM; additional resistance conferred by spheroid formation ([9]; spheroid versus catena IC50): 15 fold; IC50 (Ovcar3-GTL catenae; 24 h, read-out: IC50 (μM) Addition on Day 1): 25 nM; IC50 (Ovcar3-GTL catenae; 144 h, read-out: IC50 (μM) Addition on Day 6): 25 nM

What does the source list for Nc1ccn([C@@H]2O[C@H](CO)[C@@H](O)[C@@H]2O)c(=O)n1 [Ara-C]?
cells seen in cultures treated with high concentrations of compounds (catena cells [5]): live, large single cells, i.e., cells arrested at mitosis; Increase in Resistance Day6/Day 1 (Ovcar3-GTL catenae): 2,000 fold; IC50 (Ovcar3-GTL catenae; [13]): 50 nM; IC50 (Ovcar3-GTL catenae; [14]): > 100000 nM

For CC[C@H](C)C(=O)O[C@H]1C[C@@H](C)C=C2C=C[C@H](C)[C@H](CC[C@@H](O)C[C@@H](O)CC(=O)O)[C@H]21 [lovastatin acid], which “cells seen in cultures treated” value (catena cells [5]) is on record?
The value was “live, large single cells, i.e., cells arrested at mitosis”.

And the IC50 (Ovcar3-GTL catenae; [15])?
Its IC50 is 25000 nM.

And the IC50 (Ovcar3-GTL catenae; [16])?
Its IC50 is 50000 nM.

What about the “Increase in Resistance Day6/Day 1” value (Ovcar3-GTL catenae) of the same compound?
Its value is 2 fold.

What does the source list for CC(=O)O[C@H]1C(=O)[C@@]2(C)[C@H]([C@H](OC(=O)c3ccccc3)[C@]3(O)C[C@H](OC(=O)[C@H](O)[C@@H](NC(=O)c4ccccc4)c4ccccc4)C(C)=C1C3(C)C)[C@]1(OC(C)=O)CO[C@@H]1C[C@@H]2O [paclitaxel]?
IC50 ([7]; Homo sapiens, OVCAR-5, 96 h, 25 cells seeded, drugs added 4 days after seeding, read-out: IC50 (μM) Ovcar5 monolayer): 0.025 µM; IC50 ([7]; Homo sapiens, OVCAR-5, subnanomolar to no more than 50 nM, read-out: IC50 Ovcar5 monolayer cells): ≤ 0.05 µM; decrease of paclitaxel IC50 after PEGylated hyaluronidase (catena cells [10]; enzyme 10 min at 37° C. on day 5 before paclitaxel): 2.5 fold; decrease of paclitaxel IC50 after combination of PEGylated hyaluronidase and PEGylated collagenase (catena cells [10]; enzymes 10 min at 37° C. on day 5 before paclitaxel): 16 fold; cells seen in cultures treated with high concentrations of compounds (catena cells [5]): live, large single cells, i.e., cells arrested at mitosis; IC50 ([8]; Homo sapiens, OVCAR-3, 96 h, 100 cells seeded, drugs added 4 days after seeding, read-out: IC50 (μM) Ovcar3 monolayer): 0.025 µM; IC50 ([8]; Homo sapiens, OVCAR-3, subnanomolar to no more than 50 nM, read-out: IC50 Ovcar3 monolayer cells): ≤ 0.05 µM; IC50 (Ovcar3-GTL catenae; [15]): ≤ 0.012 nM; IC50 (Ovcar3-GTL catenae; [16]): > 100000 nM; IC50 (Ovcar3-GTL catenae; Homo sapiens, OVCAR-3, read-out: IC50 (μM) Ovcar3 catena, catena cells with an established glycocalyx (Table D)): > 100000 nM; Increased Resistance of catena (Ovcar3-GTL catenae): 4,000 fold

With O=c1[nH]cc(F)c(=O)[nH]1 [5-FU, 5-fluorouracil] as the compound, how does the “morphological change of treated catenae” value (catena cells [5]) read?
Its value is “formation of fused chains”.

What about the IC50 (Ovcar3-GTL catenae; [15]) of the same compound?
The IC50 was 3000 nM.

What about the IC50 (Ovcar3-GTL catenae; [16]) of the same compound?
The IC50 was > 100000 nM.

And the “Increase in Resistance Day6/Day 1” value (Ovcar3-GTL catenae)?
The value was 33 fold.

Which Fold resistance (Ovcar3-GTL catenae; increased resistance of catena cells with glycocalyx coat versus no coat) does the source give for CCNC(=O)c1noc(-c2cc(C(C)C)c(O)cc2O)c1-c1ccc(CN2CCOCC2)cc1 [NVP-AUY922] here?
The Fold resistance was 24 fold.

For COc1cc2c(c(OC)c1OC)-c1ccc(OC)c(=O)cc1[C@@H](NC(C)=O)CC2 [colchicine], which “toxicity to catena cells with a glycocalyx coat” value (Ovcar3-GTL catenae; LOPAC 1280 HTS, compound at 0.2 μM) is on record?
The value was “exert toxicity”.
